Measurements as given in patent publication US20240415918A1, “Polypeptide and its use as a CCK receptor agonist/antagonist” (Centre for Regenerative Medicine & Health, Hong Kong …, priority 2021, published 2024).

What was measured:
[1] = target: T1, CCK-B receptors (CHO-CCK) (Homo sapiens, UniProt P32239); test: Calcium flux (Fluo-8) agonist test on CHO-CCK model cells; type: cell-based; conditions: for EC50: CHO-CCK cells, compound alone, 100% = 20 nM CCK8; for Agonistic Activity (%) at 10 μM: compound at 10 μM, percentage of signal of 20 nM CCK8 alone
T1 construct: expressed in transfected cells; host or cells: CHO (CHO-CCK model cells)
T1 sequence (P32239 1-447): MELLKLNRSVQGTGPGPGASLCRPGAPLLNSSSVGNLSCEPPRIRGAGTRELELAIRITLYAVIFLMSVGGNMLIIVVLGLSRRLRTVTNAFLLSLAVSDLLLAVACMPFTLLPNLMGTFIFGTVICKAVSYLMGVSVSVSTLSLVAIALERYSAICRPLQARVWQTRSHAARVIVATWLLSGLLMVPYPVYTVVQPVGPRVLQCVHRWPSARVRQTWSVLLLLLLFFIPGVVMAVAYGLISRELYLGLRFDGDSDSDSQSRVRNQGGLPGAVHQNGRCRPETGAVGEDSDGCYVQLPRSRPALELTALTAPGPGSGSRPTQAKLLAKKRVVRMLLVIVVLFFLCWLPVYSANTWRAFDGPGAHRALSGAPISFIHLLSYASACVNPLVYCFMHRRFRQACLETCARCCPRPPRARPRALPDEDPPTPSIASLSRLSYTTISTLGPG
In short: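 Agonist-mode Fluo-8 calcium flux read on CHO-CCK cells after dye loading 30 min at 37 °C plus 30 min at room temperature.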

[2] = target: T1, CCK-B receptors (CHO-CCK); test: Calcium flux (Fluo-8) antagonist test on CHO-CCK model cells in presence of CCK8; type: cell-based
Procedure: The compound was formulated to a 10 mM mother liquor with DMSO, and then diluted into a series of 9 concentrations with a 3-fold gradient to form a 1000× stock solution. […] Prepare 1×Fluo-8 analysis buffer: mix 9 mL of HHBS, 1 mL of 10× Pluronic F127 Plus and 20 μL of Fluo-8 thoroughly for later use. • 3. Add Fluo-8 dye working solution to the cell plate, 100 μL/well. First incubate in a 37° C. incubator for 30 min, and then take it out and incubate at room temperature in the dark for 30 min. • 4. In the process of incubating cells, the compounds to be detected were prepared with HHBS. • 5. […] The agonism/antagonism EC50 of the compound can be obtained by plotting the fitting curve with the agonism/antagonism percentage as Y-axis and the concentration of the compound as X-axis.

[3] = compound together with 10 nM CCK8
[4] = compound together with 10 nM CCK8, bound in μM

| EC50 [1] [nM] | Agonistic Activity (%) at 10 μM [1] [%] | EC50 [2, 3] [µM] | EC50 [2, 4] [µM] | Structure (SMILES) |
| --- | --- | --- | --- | --- |
| 155 | 79.08 | 1.34 |  | CSCC[C@H](NC(=O)[C@H](N)Cc1c[nH]c2ccccc12)C(=O)N[C@@H](CC(=O)O)C(=O)N[C@@H](Cc1cccc(F)c1)C(N)=O [HT-27, D-Trp-Met-Asp-Phe(3-F)-NH2] |
| 154 | 49.93 | 0.149 |  | CSCC[C@H](NC(=O)[C@H](N)Cc1c[nH]c2ccccc12)C(=O)N[C@@H](CC(=O)O)C(=O)N[C@@H](Cc1cccc(I)c1)C(N)=O [HT-28, D-Trp-Met-Asp-Phe(3-I)-NH2] |
| 8.1 | 85.68 | 0.106 |  | CSCC[C@H](NC(=O)[C@H](N)Cc1c[nH]c2ccccc12)C(=O)N[C@@H](CC(=O)O)C(=O)N[C@@H](Cc1cccc(Br)c1)C(N)=O [HT-29, D-Trp-Met-Asp-Phe(3-Br)-NH2] |
| 93.2 | 88.74 | 0.683 |  | CSCC[C@H](NC(=O)[C@H](N)Cc1c[nH]c2ccccc12)C(=O)N[C@@H](CC(=O)O)C(=O)N[C@@H](Cc1ccc(C)cc1)C(N)=O [HT-30, D-Trp-Met-Asp-Phe(4 Me)-NH2] |
| 1130 | 57.37 | 2.66 |  | CSCC[C@H](NC(=O)[C@H](N)Cc1c[nH]c2ccccc12)C(=O)N[C@@H](CC(=O)O)C(=O)N[C@@H](Cc1ccc(C#N)cc1)C(N)=O [HT-32, D-Trp-Met-Asp-Phe(4-CN)-NH2] |
| 241 | 71.20 | 1.2 |  | CSCC[C@H](NC(=O)[C@H](N)Cc1c[nH]c2ccccc12)C(=O)N[C@@H](CC(=O)O)C(=O)N[C@@H](Cc1ccc([N+](=O)[O-])cc1)C(N)=O [HT-33, D-Trp-Met-Asp-Phe(4-NO2)-NH2] |
| 369 | 98.24 | 2.25 |  | CSCC[C@H](NC(=O)[C@H](N)Cc1c[nH]c2ccccc12)C(=O)N[C@@H](CC(=O)O)C(=O)N[C@@H](Cc1ccc(Br)cc1)C(N)=O [HT-34, D-Trp-Met-Asp-Phe(4-Br)-NH2] |
| 180 | 109.16 | 0.755 |  | CSCC[C@H](NC(=O)[C@H](N)Cc1c[nH]c2ccccc12)C(=O)N[C@@H](CC(=O)O)C(=O)N[C@@H](Cc1ccc(Cl)cc1)C(N)=O [HT-35, D-Trp-Met-Asp-Phe(4-CII)-NH2] |
| 88.8 | −3.55 | 0.876 |  | CSCC[C@H](NC(=O)[C@H](N)Cc1c[nH]c2ccccc12)C(=O)N[C@@H](CC(=O)O)C(=O)N[C@@H](Cc1ccc(F)cc1)C(N)=O [HT-36, D-Trp-Met-Asp-Phe(4-F)-NH2] |
| 864 | 52.04 | 1.22 |  | CSCC[C@H](NC(=O)[C@H](N)Cc1c[nH]c2ccccc12)C(=O)N[C@@H](CC(=O)O)C(=O)N[C@@H](Cc1ccc(I)cc1)C(N)=O [HT-37, D-Trp-Met-Asp-Phe(4-I)-NH2] |
| 49.3 | 122.74 | 0.0997 |  | CSCC[C@H](NC(=O)[C@H](N)Cc1c[nH]c2ccccc12)C(=O)N[C@@H](CC(=O)O)C(=O)N[C@@H](Cc1cc(Cl)cc(Cl)c1)C(N)=O [HT-38, D-Trp-Met-Asp-Phe(3,5-DiCl)-NH2] |
| 44.2 | 119.04 | 0.631 |  | CSCC[C@H](NC(=O)[C@H](N)Cc1c[nH]c2ccccc12)C(=O)N[C@@H](CC(=O)O)C(=O)N[C@@H](Cc1cc(F)cc(F)c1)C(N)=O [HT-39, D-Trp-Met-Asp-Phe(3,5-DiF)-NH2] |
| 78 | 98.25 | 0.244 |  | CSCC[C@H](NC(=O)[C@H](N)Cc1c[nH]c2ccccc12)C(=O)N[C@@H](CC(=O)O)C(=O)N[C@@H](Cc1cc(F)c(F)c(F)c1)C(N)=O [HT-40, D-Trp-Met-Asp-Phe(3,4,5-TriF)-NH2] |
|  | 17.97 | 8.41 |  | C[S+]([O-])CC[C@H](NC(=O)[C@H](N)Cc1c[nH]c2ccccc12)C(=O)N[C@@H](CC(=O)O)C(=O)N[C@@H](Cc1ccccc1F)C(N)=O (stereo partly drawn) [HT-42, D-Trp-Met(O)-Asp-Phe(2-F)-NH2] |
| 3020 | 62.14 | 8.97 |  | C[S+]([O-])CC[C@H](NC(=O)[C@H](N)Cc1c[nH]c2ccccc12)C(=O)N[C@@H](CC(=O)O)C(=O)N[C@@H](Cc1cccc(Cl)c1)C(N)=O (stereo partly drawn) [HT-43, D-Trp-Met(O)-Asp-Phe(3-Cl)-NH2] |
|  | 34.63 |  | > 10 | C[S+]([O-])CC[C@H](NC(=O)[C@H](N)Cc1c[nH]c2ccccc12)C(=O)N[C@@H](CC(=O)O)C(=O)N[C@@H](Cc1cccc(F)c1)C(N)=O (stereo partly drawn) [HT-44, D-Trp-Met(O)-Asp-Phe(3-F)-NH2] |
| 4380 | 58.98 | 3.37 |  | C[S+]([O-])CC[C@H](NC(=O)[C@H](N)Cc1c[nH]c2ccccc12)C(=O)N[C@@H](CC(=O)O)C(=O)N[C@@H](Cc1cccc(I)c1)C(N)=O (stereo partly drawn) [HT-45, D-Trp-Met(O)-Asp-Phe(3-I)-NH2] |
| 3800 | 53.69 | 6.24 |  | C[S+]([O-])CC[C@H](NC(=O)[C@H](N)Cc1c[nH]c2ccccc12)C(=O)N[C@@H](CC(=O)O)C(=O)N[C@@H](Cc1cccc(Br)c1)C(N)=O (stereo partly drawn) [HT-46, D-Trp-Met(O)-Asp-Phe(3-Br)-NH2] |
|  | 30.00 | 8.88 |  | C[S+]([O-])CC[C@H](NC(=O)[C@H](N)Cc1c[nH]c2ccccc12)C(=O)N[C@@H](CC(=O)O)C(=O)N[C@@H](Cc1ccc(F)cc1)C(N)=O (stereo partly drawn) [HT-53, D-Trp-Met(O)-Asp-Phe(4-F)-NH2] |
| 1650 | 62.28 | 1.79 |  | C[S+]([O-])CC[C@H](NC(=O)[C@H](N)Cc1c[nH]c2ccccc12)C(=O)N[C@@H](CC(=O)O)C(=O)N[C@@H](Cc1cc(Cl)cc(Cl)c1)C(N)=O (stereo partly drawn) [HT-55, D-Trp-Met(O)-Asp-Phe(3,5-DiCl)-NH2] |
|  | 39.73 | 9.22 |  | CS(=O)(=O)CC[C@H](NC(=O)[C@H](N)Cc1c[nH]c2ccccc12)C(=O)N[C@@H](CC(=O)O)C(=O)N[C@@H](Cc1ccccc1F)C(N)=O [HT-59, D-Trp-Met(O2)-Asp-Phe(2-F)-NH2] |
| 9240 | 50.72 | 6.61 |  | CS(=O)(=O)CC[C@H](NC(=O)[C@H](N)Cc1c[nH]c2ccccc12)C(=O)N[C@@H](CC(=O)O)C(=O)N[C@@H](Cc1cccc(Cl)c1)C(N)=O [HT-60, D-Trp-Met(O2)-Asp-Phe(3-Cl)-NH2] |
|  | 36.66 |  | > 10 | CS(=O)(=O)CC[C@H](NC(=O)[C@H](N)Cc1c[nH]c2ccccc12)C(=O)N[C@@H](CC(=O)O)C(=O)N[C@@H](Cc1cccc(F)c1)C(N)=O [HT-61, D-Trp-Met(O2)-Asp-Phe(3-F)-NH2] |
| 6050 | 48.46 | 7.5 |  | CS(=O)(=O)CC[C@H](NC(=O)[C@H](N)Cc1c[nH]c2ccccc12)C(=O)N[C@@H](CC(=O)O)C(=O)N[C@@H](Cc1cccc(Br)c1)C(N)=O [HT-63, D-Trp-Met(O2)-Asp-Phe(3-Br)-NH2] |
|  | 8.35 |  | > 10 | CS(=O)(=O)CC[C@H](NC(=O)[C@H](N)Cc1c[nH]c2ccccc12)C(=O)N[C@@H](CC(=O)O)C(=O)N[C@@H](Cc1ccc(N=[N+]=[N-])cc1)C(N)=O [HT-65, D-Trp-Met(O2)-Asp-Phe(4-N3)-NH2] |
| 1510 | 82.71 | 2.62 |  | CS(=O)(=O)CC[C@H](NC(=O)[C@H](N)Cc1c[nH]c2ccccc12)C(=O)N[C@@H](CC(=O)O)C(=O)N[C@@H](Cc1cc(Cl)cc(Cl)c1)C(N)=O [HT-72, D-Trp-Met(O2)-Asp-Phe(3,5-DiCl)-NH2] |
| 12600 | 55.41 | 8.82 |  | CS(=O)(=O)CC[C@H](NC(=O)[C@H](N)Cc1c[nH]c2ccccc12)C(=O)N[C@@H](CC(=O)O)C(=O)N[C@@H](Cc1cc(F)cc(F)c1)C(N)=O [HT-73, D-Trp-Met(O2)-Asp-Phe(3,5-DIF)-NH2] |
| 11000 | 55.05 | 8.42 |  | CS(=O)(=O)CC[C@H](NC(=O)[C@H](N)Cc1c[nH]c2ccccc12)C(=O)N[C@@H](CC(=O)O)C(=O)N[C@@H](Cc1cc(F)c(F)c(F)c1)C(N)=O [HT-74, D-Trp-Met(O2)-Asp-Phe(3,4,5-TriF)-NH2] |
|  | 20.83 |  | ~10 | COC(=O)C[C@H](NC(=O)[C@H](CCSC)NC(=O)[C@H](N)Cc1c[nH]c2ccccc12)C(=O)N[C@@H](Cc1cccc(F)c1)C(N)=O [HT-78, D-Trp-Met-Asp(Ome)-Phe(3-F)-NH2] |
